Values quoted from earlier work, collected in patent US8071785B2, “Synthesis and evaluation of 18F-labelled-alkyl-1-[(1R)-1-phenylethyl]-1H-imidazole-5-carboxylate as a tracer for the quantification of β-11-hydroxylase enzyme in the adrenal glands” (priority 2006, dated 2011).

Legend:
[1] = tested on: lesions of adrenocortical origin; settings: clinical findings
[2] = tested on: steroid 110-hydroxylation
[3] = human adrenocortical tissue slices

Compound: CC(c1ccccc1)n1cncc1C(=O)O[11CH3] (centres unmarked) [[O-methyl-^11C]metomidate]
- uptake in lesions of adrenocortical origin, including adenomas [1]: high uptake
- uptake in lesions of non-adrenocortical origin [1]: very low uptake

Compound: COC(=O)c1cncn1[C@H](C)c1ccccc1 [metomidate, Methyl 1-[(1R)-1-phenylethyl]-1H-imidazole-5-carboxylate]
- inhibition of steroid 110-hydroxylation ([2]; relative to etomidate): equally potent inhibitor

Compound: CCOC(=O)c1cncn1[C@H](C)c1ccccc1 [etomidate]
- conversion of 11-deoxycorticosterone (DOC) to corticosterone and aldosterone [2, 3]: block the conversion
- conversion of 11-deoxycortisol to cortisol [2, 3]: block the conversion
